# Test results: the supplement of paper PMC11208160
# Assay: recombinant UMI read abundance after kanamycin selection (control-corrected) (log10(CPM+1)); higher = more efficient recombination; extreme values may be limits of the assay; sequences stand for … in AGTGCAGAGAAAATCGGCCAGTTTTCTCTGCCTGCAGTCCGCATGCCGTGGGACCCCTTGGGTTCTAACCTGTTGCCTAGATTTATGCAGCGGACTGCCTTTCTCCCAAAGTGATAAACCGG…AGGTTGGTTTCACT; site = the 11-nt donor
# Outline: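 In Escherichia coli, a pool of donor and donor-binding-loop pairs, each with a 12-nt UMI, was tested for the IS621 bridge recombinase. Plating was on IPTG (0.07 mM) plus kanamycin, or without selection, in two replicates. Recombinant UMIs were amplified by PCR across the donor–target junction and sequenced, and counts were reported as log10(CPM+1) after averaging and control-derived scaling.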
# 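Further: IS621 bridge recombinase in Escherichia coli cells against a fixed T5 target plasmid.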
row,Sequence,recombinant UMI read abundance (log10)
1,TATCTAGCATGGACCGGTTTTCCCGGTAATCCGTATTTGAA (site TATCTAGCTTT),0.502
2,TATCTATCATGGACCGGTTTTCCCGGTAATCCGTATTTGTC (site TATCTATCTGA),1.59
3,TATCTCGCATGGACCGGTTTTCCCGGTAATCCGTATTTGCA (site TATCTCGCTTG),0.374
4,TATCTGGCATGGACCGGTTTTCCCGGTAATCCGTATTTGTG (site TATATGGCTCA),0.0189
5,TATCTGGCATGGACCGGTTTTCCCGGTAATCCGTATTTGTG (site TATCTGGCTCA),0.0196
6,TATCTGGCATGGACCGGTTTTCCCGGTAATCCGTATTTGTG (site TATGTGGCTCA),0.00259
7,TATCTGGCATGGACCGGTTTTCCCGGTAATCCGTATTTGTG (site TATTTGGCTCA),0.00973
8,TATGCGGCATGGACCGGTTTTCCCGGTAATCCGTATTTGAT (site TATGCGGCTAT),0.581
9,TATGCTACATGGACCGGTTTTCCCGGTAATCCGTATTTGGC (site TATGCTACTGC),0.253
10,TATGGGCCATGGACCGGTTTTCCCGGTAATCCGTATTTGCT (site TATGGGCCTAG),0
11,TATGGTACATGGACCGGTTTTCCCGGTAATCCGTATTTGGC (site TATGGTACTGC),1.67
12,TATGTACCATGGACCGGTTTTCCCGGTAATCCGTATTTGGT (site TATGTACCTAC),0.011
13,TATGTCTCATGGACCGGTTTTCCCGGTAATCCGTATTTGCC (site TATGTCTCTGG),2.6
14,TATTAGGCATGGACCGGTTTTCCCGGTAATCCGTATTTGTG (site TATTAGGCTCA),0.459
15,TATTAGGCATGGACCGGTTTTCCCGGTAATCCGTATTTGTG (site TATTCGGCTCA),0.00717
16,TATTAGGCATGGACCGGTTTTCCCGGTAATCCGTATTTGTG (site TATTGGGCTCA),0

row,Sequence,recombinant UMI read abundance (log10)
1,TATTAGGCATGGACCGGTTTTCCCGGTAATCCGTATTTGTG (site TATTTGGCTCA),0.0156
2,TATTATCCATGGACCGGTTTTCCCGGTAATCCGTATTTGCT (site AATTATCCTAG),0.494
3,TATTATCCATGGACCGGTTTTCCCGGTAATCCGTATTTGCT (site CATTATCCTAG),0
4,TATTATCCATGGACCGGTTTTCCCGGTAATCCGTATTTGCT (site GATTATCCTAG),0
5,TATTATCCATGGACCGGTTTTCCCGGTAATCCGTATTTGCT (site TATTATCCTAG),0.622
6,TATTATGCATGGACCGGTTTTCCCGGTAATCCGTATTTGGA (site AATTATGCTTC),0.364
7,TATTATGCATGGACCGGTTTTCCCGGTAATCCGTATTTGGA (site CATTATGCTTC),0.525
8,TATTATGCATGGACCGGTTTTCCCGGTAATCCGTATTTGGA (site GATTATGCTTC),0.00418
9,TATTATGCATGGACCGGTTTTCCCGGTAATCCGTATTTGGA (site TATTATGCTTC),0.177
10,TATTCGCCATGGACCGGTTTTCCCGGTAATCCGTATTTGGG (site TATTCGCCTCC),0.0547
11,TATTGACCATGGACCGGTTTTCCCGGTAATCCGTATTTGCG (site TATTGACCTCG),0.00685
12,TATTGGACATGGACCGGTTTTCCCGGTAATCCGTATTTGAC (site AATTGGACTGT),0
13,TATTGGACATGGACCGGTTTTCCCGGTAATCCGTATTTGAC (site CATTGGACTGT),0.701
14,TATTGGACATGGACCGGTTTTCCCGGTAATCCGTATTTGAC (site GATTGGACTGT),0.0156
15,TATTGGACATGGACCGGTTTTCCCGGTAATCCGTATTTGAC (site TATTGGACTGT),1.68
16,TATTTCCCATGGACCGGTTTTCCCGGTAATCCGTATTTGTG (site TATTTCCCTCA),0.213
